{"source": "patent US20220162240A1", "about": "“MITOCHONDRIA-TARGETED ISOKETAL/ISOLEVUGLANDIN SCAVENGERS” (Vanderbilt University, priority 2019, published 2022)", "key": {"[1]": {"system": "human aortic endothelial cells (HAEC)", "experiment": "Mitochondrial superoxide in HAEC incubated with Ang II plus TNFα (MitoSOX/HPLC)", "type": "cell-based", "description": "(§1) Free radical oxidation of arachidonic acid produces highly reactive isolevuglandins (isoLG) which causes mitochondrial dysfunction by opening of the mitochondrial permeability transition pore (mPTP). […] The functional role of mitochondrial isoLG was tested in vivo using angiotensin II model of hypertension. C57Bl/6J mice were infused with angiotensin II (0.7 mg/kg/day) or saline (Sham) and received mito2HOBA in the drinking water (0.1 g/L). […] Decrease of NO is a hallmark of endothelial dysfunction in hypertension due to vascular oxidative stress.\n(§2) Mitochondrial O2^• and cardiolipin oxidation (specific marker of mitochondrial dysfunction and oxidative stress) in cultured human aortic endothelial cells (HAEC) were incubated with Ang II and TNFα."}, "[2]": {"system": "human aortic endothelial cells (HAEC)", "experiment": "Cardiolipin oxidation in HAEC incubated with Ang II plus TNFα (LC/MS)", "type": "cell-based", "conditions": "50 nM, Ang II + TNFα 24 hours", "description": "as §1, §2"}, "hypertension": {"system": "hypertension", "conditions": "background statement; cited from earlier work"}, "[3]": {"system": "Ang II-infused C57Bl/6J mice", "experiment": "Blood pressure (tail-cuff) in Ang II-induced hypertension, CypD blocker given after onset", "type": "in vivo", "conditions": "i.p. 10 mg/kg/day after onset of Ang II-induced hypertension", "description": "(§3) FIG. 3A-3D is a set of graphs showing examples of targeting CypD in hypertension. Blood pressure in C57Bl/6J mice infused with saline (Sham), Ang II (0.7 mg/kg/day) or treated with CypD blocker Sanglifehrin A (SFA) after onset of Ang II-induced hypertension (Ang II+SFA). Blood pressure was measured by tail-cuff method (A). ^3Following 14 days of saline or Ang II infusion, mice were sacrificed for isolation of aorta to study mitochondrial […] using MitoSOX and HPLC or to study vasodilation. Results are mean±SEM (n=6-8). *P<0.01 vs Sham, **P<0.01 vs Ang II, ***P<0.01 vs Ang II+SFA (n=8).\n(§4) One aspect of the present invention is targeting CypD after onset of hypertension. The present inventors implanted wild-type mice with osmotic pump containing Ang II (0.7 mg/kg/day) and started treatment with Sanglifehrin A after onset of Ang II-induced hypertension (FIG. 3A)."}, "mitochondrial superoxide": {"system": "mitochondrial superoxide", "experiment": "Aortic mitochondrial superoxide (MitoSOX/HPLC) in Ang II-infused mice treated with CypD blocker", "type": "in vivo", "conditions": "i.p. 10 mg/kg/day after onset of Ang II-induced hypertension", "description": "as §3, §4"}, "aorta": {"system": "aorta", "experiment": "Vasodilatation of aorta from Ang II-infused mice treated with CypD blocker", "type": "in vivo", "conditions": "i.p. 10 mg/kg/day after onset of Ang II-induced hypertension", "description": "as §3, §4"}, "[4]": {"system": "intact mouse kidney mitochondria", "experiment": "Swelling and respiration of isolated mouse kidney mitochondria after acute isoLG or isoLG-PE exposure", "conditions": "for mPTP opening / mitochondrial swelling / inhibition of mitochondrial respiration: 1 μM; for inhibition of mitochondrial respiration: acute treatment of isolated mitochondria, 5 min, glutamate and malate, ADP 50 μM", "description": "Intact mouse kidney mitochondria with glutamate and malate were incubated (5 min) with ethanol as vehicle, isoLG (1 μM) or isoLG-PE (1 μM) prior to addition of ADP (50 μM) and measurements of oxygen consumption. *P<0.001 vs Control, **P<0.03 vs isoLG.\nReactive isoLG produce protein-Lysine adducts and cytotoxic isoLG-phosphatidylethanolamine adduct (isoLG-PE) which can independently contribute to mitochondrial dysfunction. Indeed, acute treatment of isolated mitochondria with isoLG-PE inhibited respiration by 41% while similar dose of isoLG reduced respiration by 74% which support potential role of both isoLG-PE and isoLG protein-Lysine adducts in mitochondrial dysfunction."}, "[5]": {"conditions": "acute exposure of isolated mitochondria"}}, "note": "Entries after “also recorded” stand apart in the source; their conditions may differ.", "data": [{"compound": "NCc1ccccc1O", "note": "[2HOBA, 2-hydroxybenzylamine, reference compound]", "values": [{"measurement": "mitochondrial superoxide production / mitochondrial oxidative stress", "setting": "[1]; 50 nM, Ang II + TNFα 24 hours, MitoSOX/HPLC", "value": "not effective"}, {"measurement": "concentration required for protection similar to mito2HOBA (50 nM) against mitochondrial oxidative stress", "setting": "[1]; Ang II + TNFα", "value": "much higher concentrations"}, {"measurement": "cardiolipin oxidation", "setting": "[2]", "value": "not effective"}, {"measurement": "endothelium-dependent relaxation in animal studies", "setting": "hypertension", "value": "protects endothelium-dependent relaxation"}, {"measurement": "hypertension in animal studies", "setting": "hypertension", "value": "attenuates hypertension"}, {"measurement": "inflammation in animal studies", "setting": "hypertension", "value": "prevents inflammation"}]}, {"compound": "CC[C@H]1C[C@H](C)[C@@]2(NC1=O)O[C@@H](C[C@H](O)[C@@H](C)CC/C=C/C=C(\\C)[C@@H]1C/C=C/C=C/[C@H](O)[C@H](C)[C@@H](O)[C@@H](CCC(C)=O)C(=O)N[C@@H](C(C)C)C(=O)N[C@@H](Cc3cccc(O)c3)C(=O)N3CCC[C@H](N3)C(=O)O1)[C@H](C)[C@H](O)[C@@H]2C", "note": "[Sanglifehrin A]", "values": [{"measurement": "blood pressure", "setting": "[3]", "value": "reduces blood pressure"}, {"measurement": "mitochondrial superoxide production in aorta", "setting": "mitochondrial superoxide", "value": "normalizes"}, {"measurement": "vasodilatation", "setting": "aorta", "value": "improves vasodilatation"}]}, {"compound": "isoLG-phosphatidylethanolamine adduct [isoLG-PE]", "values": [{"measurement": "mPTP opening / mitochondrial swelling", "setting": "[4]; [5]", "value": "mitochondrial swelling"}, {"measurement": "inhibition of mitochondrial respiration", "setting": "[4]", "value": 41, "unit": "%"}]}, {"compound": "isolevuglandins [isoLG]", "values": [{"measurement": "mitochondrial respiration", "setting": "[4]; [5]", "value": "inhibits mitochondrial respiration"}, {"measurement": "mPTP opening / mitochondrial swelling", "setting": "[4]; [5]", "value": "induces CypD-dependent mPTP opening; also recorded: mitochondrial swelling"}, {"measurement": "inhibition of mitochondrial respiration", "setting": "[4]", "value": 74, "unit": "%"}]}]}
